Experimental data from patent US6699686B1, “Modified nuclear glucocorticoid receptor, fusion protein, and DNA fragments coding for said receptor and said fusion protein” (Association pour le Development de la Recherche en …, priority 1996, dated 2004).

Target: T1, hGR(I747/T) (Homo sapiens, UniProt P04150, I747T)
T1 construct: The same shift was observed as with the complete GR (I747/T) mutant; expressed in transfected cells
T1 sequence (P04150 1-777 I747T): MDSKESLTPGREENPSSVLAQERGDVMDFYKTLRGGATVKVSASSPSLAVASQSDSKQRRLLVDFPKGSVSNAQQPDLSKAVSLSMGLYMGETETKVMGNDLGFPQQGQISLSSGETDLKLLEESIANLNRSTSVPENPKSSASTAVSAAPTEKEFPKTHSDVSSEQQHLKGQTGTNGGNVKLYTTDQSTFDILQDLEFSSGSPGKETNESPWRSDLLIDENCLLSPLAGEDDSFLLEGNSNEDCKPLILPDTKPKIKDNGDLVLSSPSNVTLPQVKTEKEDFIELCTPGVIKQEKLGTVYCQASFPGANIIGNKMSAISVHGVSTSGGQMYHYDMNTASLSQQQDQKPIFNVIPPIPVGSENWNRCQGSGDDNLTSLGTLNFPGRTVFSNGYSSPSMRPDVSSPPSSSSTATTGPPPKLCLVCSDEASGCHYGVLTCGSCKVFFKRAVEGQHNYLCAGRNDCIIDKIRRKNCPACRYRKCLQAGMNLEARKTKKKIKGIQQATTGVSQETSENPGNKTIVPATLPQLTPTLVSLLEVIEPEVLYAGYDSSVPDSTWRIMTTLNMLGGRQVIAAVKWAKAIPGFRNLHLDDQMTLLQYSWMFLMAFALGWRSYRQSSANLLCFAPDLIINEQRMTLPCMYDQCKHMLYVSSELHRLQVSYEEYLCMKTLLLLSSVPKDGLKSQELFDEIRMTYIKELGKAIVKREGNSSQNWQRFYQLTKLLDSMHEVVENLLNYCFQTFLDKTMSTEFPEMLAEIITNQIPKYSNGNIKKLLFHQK
Experiment: Transcriptional activation of pTAT-tk-Luc luciferase reporter in transiently transfected CV-1 cells
Format: cell-based
Details: CV-1 cells, pTAT-tk-Luc; for Luciferase activity % hGR (I747/T): 24 h ligand, mean of three independent assays; for EC50 hGR (I747/T): ligand concentration giving 50% of maximum transcriptional response
Protocol: The receptors were transiently expressed in GR-free CV-1 cells, conjointly with a luciferase reporter gene under the control of the tyrosine aminotransferase promoter (pTAT-tk-Luc).
After transfection, the cells were incubated for 24 hours with increasing concentrations of Dex, and they were then subjected to an assay of the β-galactosidase and luciferase activities, as described in “Materials and Methods”. The luciferase activity was normalized with the β-galactosidase activity, and the value obtained in the absence of ligand was subtracted for each point. The results were expressed as a percentage of the maximum luciferase activity obtained for each receptor. Each point is the mean±standard deviation of the mean of four separate determinations carried out in duplicate. […] The [^3H] steroid attached was measured after treatment with dextran-coated charcoal. The results presented are those for a single assay carried out in duplicate and representative of three separate assays.
Co-transfections were carried out and dose-response curves were constructed as described in FIG. 2. […] The assays of luciferase and β-galactosidase activity were carried out as described in “Materials and Methods”. The mean values of three independent assays are given in this table. nm=not measurable.
The CV-1 and Cos-7 cells were cultured in Dulbeco's modified Eagle's medium (DMEM) containing 10% (v/v) of fetal calf serum (FCS) (Gibco, Grand Island, N.Y.), in a humidified atmosphere containing 5% CO2. The HeLa cells were cultured under the same conditions. Transient transfections were carried out in 6-well multiplates according to the calcium phosphate procedure already described (42). A reference recombinant plasmid, pCMV-βgal, expressing bacterial β-galactosidase, was transfected conjointly with the receptor expression vector and the corresponding reporter gene so as to correct possible variations in he transfection efficiency. The precipitate was removed by washing after 24 hours, and the cells were kept in DMEX without FCS but containing hormone. After another 24 hours, the cells were rinsed and lysed for 15 minutes with 0.3 ml of lysis buffer [25 mM Tris.phosphate, pH 7.8, 8 mM […], 1% Triton X100, 10% glycerol (48)]. The corresponding luciferase activity as determined on an aliquot fraction (0.1 ml), by evaluation of the luminescence peak (for an integration time of 15 seconds), after injection of 0.1 ml of 1 mM luciferin in an LKB luminometer. The β-galactosidase was determined by the method modified by Bocquel et al. (49), for controlling the efficiency of each transfection.
The reporter gene pTAT-tk-Luc was provided by D. Gagne and was constructed as follows: an intermediate plasmid pTAT was first generated by insertion of the 966 bp EcoRI-BamHI segment obtained from pKT531 [offered freely by T. Grande (50)] into the corresponding sites of the vector pUC19 (Pharmacia). The fragment containing the sequence coding for the firefly luciferase and the thymidine kinase (tk) minimal promoter obtained from the Herpes simplex virus was isolated in the form of a BamHI fragment from pvit-tk-Luc (51) and inserted, downstream of the TAT promoter, into the corresponding site of pTAT. The reporter plasmid pGRE-tk-Luc was constructed by ligation of the fragment of HindIII-BglII digestion of pGRE-tk-CAT (52), which contains a synthetic GRE (AGAACAcagTGTTCT) upstream of the tk minimal promoter, into the HindIII-BglII sites of pLuc (53). The reporter gene p(17M)5-βGlob-Luc has been previously described (54). The reporter plasmid p(17M)5-tata-Luc was constructed from the plasmid p(17M)5-tata-CAT (55) by digestion with XhoI-BamHI and isolation of the fragment containing (17M5)-tata. This fragment was then inserted into the vector pGL2 (Promega) digested with the same restriction enzymes.

SMILES | transactivation by the I747/T mutant receptor compared with wild-type receptor | Luciferase activity % hGR (I747/T) [%] | EC50 hGR (I747/T)
C[C@]12CCC(=O)C=C1CC[C@@H]1[C@@H]2[C@@H](O)C[C@]2(C=O)[C@@H](C(=O)CO)CC[C@@H]12 [Aldosterone, aldosterone] | suppressed | 0 | nM
C[C@@H]1C[C@H]2[C@@H]3CCC4=CC(=O)C=C[C@]4(C)[C@@]3(F)[C@@H](O)C[C@]2(C)[C@@]1(O)C(=O)CO [Dexamethasone, dexamethasone] | – | 100 | –
C[C@]12C[C@H](O)[C@H]3[C@@H](CCC4=CC(=O)CC[C@@]43C)[C@@H]1CC[C@@H]2C(=O)CO [Corticosterone, corticosterone] | suppressed | 0 | nM
C[C@]12CCC(=O)C=C1CC[C@@H]1[C@@H]2[C@@H](O)C[C@@]2(C)[C@H]1CC[C@]2(O)C(=O)CO [Cortisol, cortisol] | greatly reduced | 15 | –
